In one assay the test system is BEN. In words: relative viability (nuclei count vs DMSO), 5 days (fraction); higher = more cells survive. Conditions: first compound 0.6325 µM. The essentials: (§1)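 Medians of duplicate plates are given as relative viability. That measure is the nuclei count in treated wells divided by the count in vehicle wells. Counts were taken on 4× images of lung cancer cell lines in 1536-well plates, 5 days after pin-tool dosing the day after seeding with one drug alone or a fixed anchor-drug dose plus five library-drug doses (not always all listed) in √10 steps.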
Regarding `COCC1(CO)C(=O)C2CCN1CC2` (stereo unspecified) [PRIMA-1MET] + O=C(CCCCCCC(=O)Nc1ccccc1)NO [Vorinostat] (partner 1 µM), the relative viability was found to be 0.389.
`COCC1(CO)C(=O)C2CCN1CC2` (stereo unspecified) [PRIMA-1MET] + Cc1cc(Nc2cc(N3CCN(C)CC3)nc(Sc3ccc(NC(=O)C4CC4)cc3)n2)n[nH]1 [Tozasertib] (partner 0.1 µM) registered a relative viability of 0.473.
`COCC1(CO)C(=O)C2CCN1CC2` (stereo unspecified) [PRIMA-1MET] + COc1cccc2cc(-c3nc([C@H]4CC[C@H](C(=O)O)CC4)n4ncnc(N)c34)[nH]c12 [OSI-027] (partner 0.5 µM) registered a relative viability of 0.304.

Staying with this assay, now noted: first compound 6.325 µM.
Turning to `COCC1(CO)C(=O)C2CCN1CC2` (stereo unspecified) [PRIMA-1MET] + CS(=O)(=O)CCNCc1ccc(-c2ccc3ncnc(Nc4ccc(OCc5cccc(F)c5)c(Cl)c4)c3c2)o1 [Lapatinib] (partner 2 µM), the relative viability was 0.82.
Same read-out and setting: in the case of `COCC1(CO)C(=O)C2CCN1CC2` (stereo unspecified) [PRIMA-1MET] + O=C(CCCCCCC(=O)Nc1ccccc1)NO [Vorinostat] (partner 1 µM) it was 0.571.
Turning to `COCC1(CO)C(=O)C2CCN1CC2` (stereo unspecified) [PRIMA-1MET] + Cc1cc(Nc2cc(N3CCN(C)CC3)nc(Sc3ccc(NC(=O)C4CC4)cc3)n2)n[nH]1 [Tozasertib] (partner 0.1 µM), the relative viability came out at 0.501.
The same measure, in the same setting: the figure for `COCC1(CO)C(=O)C2CCN1CC2` (stereo unspecified) [PRIMA-1MET] + COc1cccc2cc(-c3nc([C@H]4CC[C@H](C(=O)O)CC4)n4ncnc(N)c34)[nH]c12 [OSI-027] (partner 0.5 µM) is 0.287.

The same assay, now with this note: first compound 20 µM.
`COCC1(CO)C(=O)C2CCN1CC2` (stereo unspecified) [PRIMA-1MET] + CS(=O)(=O)CCNCc1ccc(-c2ccc3ncnc(Nc4ccc(OCc5cccc(F)c5)c(Cl)c4)c3c2)o1 [Lapatinib] (partner 2 µM) returned a relative viability of 0.687.
In the case of `COCC1(CO)C(=O)C2CCN1CC2` (stereo unspecified) [PRIMA-1MET] + O=C(CCCCCCC(=O)Nc1ccccc1)NO [Vorinostat] (partner 1 µM), the relative viability worked out at 0.613.
`COCC1(CO)C(=O)C2CCN1CC2` (stereo unspecified) [PRIMA-1MET] + Cc1cc(Nc2cc(N3CCN(C)CC3)nc(Sc3ccc(NC(=O)C4CC4)cc3)n2)n[nH]1 [Tozasertib] (partner 0.1 µM) yielded a relative viability of 0.538.
The same measure, in the same setting: in the case of `COCC1(CO)C(=O)C2CCN1CC2` (stereo unspecified) [PRIMA-1MET] + COc1cccc2cc(-c3nc([C@H]4CC[C@H](C(=O)O)CC4)n4ncnc(N)c34)[nH]c12 [OSI-027] (partner 0.5 µM) it was 0.336.

The subject of a further assay is COR-L 105. Described as above. The note with it: first compound 0.2 µM. The essentials:
as §1
Consider `COCC1(CO)C(=O)C2CCN1CC2` (stereo unspecified) [PRIMA-1MET] + CS(=O)(=O)CCNCc1ccc(-c2ccc3ncnc(Nc4ccc(OCc5cccc(F)c5)c(Cl)c4)c3c2)o1 [Lapatinib] (partner 2 µM), for which the relative viability is 0.45.
The same measure, in the same setting: the figure for `COCC1(CO)C(=O)C2CCN1CC2` (stereo unspecified) [PRIMA-1MET] + O=C(CCCCCCC(=O)Nc1ccccc1)NO [Vorinostat] (partner 1 µM) is 1.13.
The same measure, in the same setting: the figure for `COCC1(CO)C(=O)C2CCN1CC2` (stereo unspecified) [PRIMA-1MET] + Cc1cc(Nc2cc(N3CCN(C)CC3)nc(Sc3ccc(NC(=O)C4CC4)cc3)n2)n[nH]1 [Tozasertib] (partner 0.1 µM) is 0.228; for `COCC1(CO)C(=O)C2CCN1CC2` (stereo unspecified) [PRIMA-1MET] + COc1cccc2cc(-c3nc([C@H]4CC[C@H](C(=O)O)CC4)n4ncnc(N)c34)[nH]c12 [OSI-027] (partner 0.5 µM) it is 0.899.

The same assay, now with this note: first compound 0.6325 µM.
The compound `COCC1(CO)C(=O)C2CCN1CC2` (stereo unspecified) [PRIMA-1MET] + CS(=O)(=O)CCNCc1ccc(-c2ccc3ncnc(Nc4ccc(OCc5cccc(F)c5)c(Cl)c4)c3c2)o1 [Lapatinib] (partner 2 µM) displayed a relative viability of 0.33.
Still for that read-out and setting: the figure for `COCC1(CO)C(=O)C2CCN1CC2` (stereo unspecified) [PRIMA-1MET] + O=C(CCCCCCC(=O)Nc1ccccc1)NO [Vorinostat] (partner 1 µM) is 0.859; for `COCC1(CO)C(=O)C2CCN1CC2` (stereo unspecified) [PRIMA-1MET] + Cc1cc(Nc2cc(N3CCN(C)CC3)nc(Sc3ccc(NC(=O)C4CC4)cc3)n2)n[nH]1 [Tozasertib] (partner 0.1 µM) it is 0.338.
Same read-out and setting: the figure for `COCC1(CO)C(=O)C2CCN1CC2` (stereo unspecified) [PRIMA-1MET] + COc1cccc2cc(-c3nc([C@H]4CC[C@H](C(=O)O)CC4)n4ncnc(N)c34)[nH]c12 [OSI-027] (partner 0.5 µM) is 0.66.

Staying with this assay, now noted: first compound 2 µM.
As for `COCC1(CO)C(=O)C2CCN1CC2` (stereo unspecified) [PRIMA-1MET] + CS(=O)(=O)CCNCc1ccc(-c2ccc3ncnc(Nc4ccc(OCc5cccc(F)c5)c(Cl)c4)c3c2)o1 [Lapatinib] (partner 2 µM), the relative viability stood at 0.312.
The same measure, in the same setting: in the case of `COCC1(CO)C(=O)C2CCN1CC2` (stereo unspecified) [PRIMA-1MET] + O=C(CCCCCCC(=O)Nc1ccccc1)NO [Vorinostat] (partner 1 µM) it was 0.769; in that of `COCC1(CO)C(=O)C2CCN1CC2` (stereo unspecified) [PRIMA-1MET] + Cc1cc(Nc2cc(N3CCN(C)CC3)nc(Sc3ccc(NC(=O)C4CC4)cc3)n2)n[nH]1 [Tozasertib] (partner 0.1 µM), 0.32.
The same measure, in the same setting: in the case of `COCC1(CO)C(=O)C2CCN1CC2` (stereo unspecified) [PRIMA-1MET] + COc1cccc2cc(-c3nc([C@H]4CC[C@H](C(=O)O)CC4)n4ncnc(N)c34)[nH]c12 [OSI-027] (partner 0.5 µM) it was 0.488.

The same assay, now with this note: first compound 6.325 µM.
`COCC1(CO)C(=O)C2CCN1CC2` (stereo unspecified) [PRIMA-1MET] + CS(=O)(=O)CCNCc1ccc(-c2ccc3ncnc(Nc4ccc(OCc5cccc(F)c5)c(Cl)c4)c3c2)o1 [Lapatinib] (partner 2 µM): the relative viability turned out to be 0.419.
Same read-out and setting: in the case of `COCC1(CO)C(=O)C2CCN1CC2` (stereo unspecified) [PRIMA-1MET] + O=C(CCCCCCC(=O)Nc1ccccc1)NO [Vorinostat] (partner 1 µM) it was 0.771; in that of `COCC1(CO)C(=O)C2CCN1CC2` (stereo unspecified) [PRIMA-1MET] + Cc1cc(Nc2cc(N3CCN(C)CC3)nc(Sc3ccc(NC(=O)C4CC4)cc3)n2)n[nH]1 [Tozasertib] (partner 0.1 µM), 0.294.

The record behind these values is the supplement of paper PMC10307832.
